From the Kinase Knowledgebase extract (Sharma et al. 2016)
pIC50: −log10 of the molar value.

Target: EGFR (human) (UniProt P00533)
Assay: Assessment of EGFR Kinase Activity

EGFR (human), sequence (P00533 whole entry, looked up): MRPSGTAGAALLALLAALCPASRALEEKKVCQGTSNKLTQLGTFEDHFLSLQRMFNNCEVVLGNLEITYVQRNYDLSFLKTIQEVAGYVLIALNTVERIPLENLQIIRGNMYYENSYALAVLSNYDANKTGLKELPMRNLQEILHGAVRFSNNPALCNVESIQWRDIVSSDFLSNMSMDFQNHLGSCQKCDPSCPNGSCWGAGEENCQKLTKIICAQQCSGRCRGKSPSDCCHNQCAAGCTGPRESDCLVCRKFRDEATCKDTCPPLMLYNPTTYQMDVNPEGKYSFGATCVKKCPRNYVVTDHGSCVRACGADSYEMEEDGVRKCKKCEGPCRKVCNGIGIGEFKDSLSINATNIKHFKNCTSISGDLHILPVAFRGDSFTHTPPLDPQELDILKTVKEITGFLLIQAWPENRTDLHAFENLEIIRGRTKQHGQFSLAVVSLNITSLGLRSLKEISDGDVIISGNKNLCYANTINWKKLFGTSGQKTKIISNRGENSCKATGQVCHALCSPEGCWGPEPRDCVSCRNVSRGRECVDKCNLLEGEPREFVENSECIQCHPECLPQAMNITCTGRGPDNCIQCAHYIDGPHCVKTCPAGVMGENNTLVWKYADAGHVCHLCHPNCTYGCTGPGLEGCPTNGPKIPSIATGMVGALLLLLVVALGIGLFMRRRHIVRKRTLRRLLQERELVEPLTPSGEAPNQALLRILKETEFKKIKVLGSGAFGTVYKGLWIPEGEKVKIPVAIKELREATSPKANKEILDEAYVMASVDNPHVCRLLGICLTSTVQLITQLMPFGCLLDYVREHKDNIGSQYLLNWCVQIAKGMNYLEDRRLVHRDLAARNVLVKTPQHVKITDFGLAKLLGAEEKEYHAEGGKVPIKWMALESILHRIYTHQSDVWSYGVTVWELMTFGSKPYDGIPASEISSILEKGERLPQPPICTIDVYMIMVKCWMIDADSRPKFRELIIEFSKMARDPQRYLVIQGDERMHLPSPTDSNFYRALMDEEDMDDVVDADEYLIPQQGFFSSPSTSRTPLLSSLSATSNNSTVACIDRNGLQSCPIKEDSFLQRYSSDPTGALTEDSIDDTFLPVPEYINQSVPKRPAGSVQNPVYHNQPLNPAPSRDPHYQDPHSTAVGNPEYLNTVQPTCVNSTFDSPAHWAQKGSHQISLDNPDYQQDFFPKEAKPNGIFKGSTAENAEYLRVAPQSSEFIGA

| Structure (SMILES) | pIC50 |
| --- | --- |
| CP1(=O)CCN(Cc2ccc(-c3ccc4ncnc(Nc5ccc(Br)cc5F)c4c3)o2)CC1 | 6.00 to 7.00 |
| COP(=O)(CCNCc1ccc(-c2ccc3ncnc(Nc4ccc(OCc5cccc(F)c5)c(Cl)c4)c3c2)o1)OC | > 7.00 |
| CCOP1(=O)CCN(Cc2ccc(-c3ccc4ncnc(Nc5ccc(OCc6cccc(F)c6)c(Cl)c5)c4c3)o2)CC1 | > 7.00 |
| Cc1cccc(COc2ccc(Nc3ncnc4ccc(-c5ccc(CN6CCP(C)(=O)CC6)o5)cc34)cc2Cl)n1 | 6.00 to 7.00 |
| CP(C)(=O)CCNCC#Cc1ccc2ncnc(Nc3ccc(OCc4cccc(F)c4)c(Cl)c3)c2c1 | > 7.00 |
| CP1(=O)CCN(CCCc2ccc3ncnc(Nc4ccc(OCc5cccc(F)c5)c(Cl)c4)c3c2)CC1 | > 7.00 |
| CP1(=O)CCN(C/C=C/c2ccc3ncnc(Nc4ccc(OCc5cccc(F)c5)c(Cl)c4)c3c2)CC1 | > 7.00 |
| CP1(=O)CCN(Cc2ccc(-c3ccc4ncnc(Nc5ccc(OCc6cccc(F)c6)c(Br)c5)c4c3)o2)CC1 | > 7.00 |
| CC1(C)COP(=O)(CCNCc2ccc(-c3ccc4ncnc(Nc5ccc(OCc6cccc(F)c6)c(Cl)c5)c4c3)o2)OC1 | > 7.00 |
| CP(C)(=O)CCN(CCO)Cc1ccc(-c2ccc3ncnc(Nc4ccc5c(cnn5Cc5cccc(F)c5)c4)c3c2)o1 | > 7.00 |
| Cc1ccc(Oc2ccc(Nc3ncnc4ccc(-c5ccc(CN6CCP(C)(=O)CC6)o5)cc34)cc2C)cn1 | > 7.00 |
| CP(C)(=O)CNCc1ccc(-c2ccc3ncnc(Nc4ccc(OCc5cccc(F)c5)c(Cl)c4)c3c2)o1 | > 7.00 |
| C#Cc1cc(Nc2ncnc3ccc(-c4ccc(CN5CCP(C)(=O)CC5)o4)cc23)ccc1OCc1cccc(F)c1 | > 7.00 |
| CP1(=O)CCN(Cc2ccc(-c3ccc4ncnc(Nc5ccc(OCc6cnccn6)c(Cl)c5)c4c3)o2)CC1 | > 7.00 |
| CCN(CCP(C)(C)=O)Cc1ccc(-c2ccc3ncnc(Nc4ccc5c(cnn5Cc5cccc(F)c5)c4)c3c2)o1 | > 7.00 |

More lines, now with the values ahead:

| pIC50 | Structure (SMILES) |
| --- | --- |
| > 7.00 | CP1(=O)CCN(Cc2ccc(-c3ccc4ncnc(Nc5ccc(OCc6ccccn6)c(Cl)c5)c4c3)o2)CC1 |
| > 7.00 | CP(C)(=O)CCNCc1ccc(-c2ccc3ncnc(Nc4ccc5c(cnn5Cc5cccc(F)c5)c4)c3c2)o1 |
| > 7.00 | CP1(=O)CCN(Cc2ccc(-c3ccc4ncnc(Nc5cccc(Cl)c5F)c4c3)o2)CC1 |
| > 7.00 | CP1(=O)CCN(CC#Cc2ccc3ncnc(Nc4ccc(OCc5cccc(F)c5)c(Cl)c4)c3c2)CC1 |
| > 7.00 | CP(C)(=O)CCNCc1ccc(-c2ccc3ncnc(Nc4ccc(OCc5cccc(F)c5)c(Cl)c4)c3c2)o1 |
| > 7.00 | Cc1cccc(COc2ccc(Nc3ncnc4ccc(-c5ccc(CN6CCP(C)(=O)CC6)o5)cc34)cc2Cl)[n+]1[O-] |
| > 7.00 | C[C@@H](Nc1ncnc2ccc(-c3ccc(CN4CCP(C)(=O)CC4)o3)cc12)c1ccccc1 |
| > 7.00 | CP(C)(=O)CN1CCN(Cc2ccc(-c3ccc4ncnc(Nc5ccc(OCc6cccc(F)c6)c(Cl)c5)c4c3)o2)CC1 |
| > 7.00 | CP1(=O)CCN(CC#Cc2ccc3ncnc(Nc4ccc5c(cnn5Cc5cccc(F)c5)c4)c3c2)CC1 |
| > 7.00 | CP1(=O)CCN(Cc2ccc(-c3ccc4ncnc(Nc5ccc6c(cnn6Cc6cccc(F)c6)c5)c4c3)o2)CC1 |
| > 7.00 | CP1(=O)CCN(Cc2ccc(-c3ccc4ncnc(Nc5ccc(OCc6cccc[n+]6[O-])c(Cl)c5)c4c3)o2)CC1 |
| > 7.00 | CP1(=O)CCN(Cc2ccc(-c3ccc4ncnc(Nc5ccc(Br)c(Cl)c5F)c4c3)o2)CC1 |
| > 7.00 | CP1(=O)CCN(Cc2ccc(-c3ccc4ncnc(Nc5ccc(OCc6cccc(F)c6)c(Cl)c5)c4c3)o2)CC1 |
